Test results taken from patent US20250120967A1, “TYROSINE KINASES INHIBITORS AND USES THEREOF” (GREAT NOVEL THERAPEUTICS BIOTECH & MEDICALS CORPORATION, priority 2023, published 2025).

Tests used:
FLT1 (VEGFR1) = FLT1 (VEGFR1) (Homo sapiens, UniProt P17948); assay: Tyrosine kinase inhibition assay; type: biochemical; details: single concentration 1.0 μM, read-out: percent inhibition
Method: (§1) Tyrosine kinase inhibition assays were performed at ThermoFisher Life Technologies (Madison, WI, USA) using standard protocols (SelectScreen Biochemical Profiling Service, Thermo Fisher Scientific). ATP concentrations used were at the apparent Km. Test compounds were screened in 1% dimethylsulffoxide (DMSO) (final concentration) in the well. For 10-point titrations, 3-fold serial dilutions were conducted from the starting concentration of […]. All Peptide/Kinase Mixtures were diluted to a 2× working concentration in the appropriate Kinase Buffer. All ATP Solutions were diluted to a 4× working concentration in Kinase Buffer (50 mM HEPES pH 7.5, 0.01% BRIJ-35, 10 mM MgCl2, 1 mM EGTA). The apparent ATP Km was previously determined using a Z′-LYTE assay. The Development Reagent was diluted in Development Buffer.
(§2) The inhibition activities of compounds were determined in biochemical assays using single concentration (1.0 μM) measurements. The results were provided as percent inhibition values. […] 99 different tyrosine kinases were used.

RPMI-8226 = assay: NCI-60 screen (SRB); type: cell-based; details: Homo sapiens; RPMI-8226, Leukemia
Method: (§3) The human tumor cell lines of the cancer screening panel are grown in RPMI 1640 medium containing 5% fetal bovine serum and 2 mM L-glutamine. For a typical screening experiment, cells are inoculated into 96 well microtiter plates in 100 μL at plating densities ranging from 5,000 to 40,000 cells/well depending on the doubling time of individual cell lines. After cell inoculation, the microtiter plates are incubated at 37° C., 5% CO2, 95% air and 100% relative humidity for 24 h prior to addition of experimental drugs. After 24 h, two plates of each cell line are fixed in situ with TCA, to represent a measurement of the cell population for each cell line at the time of drug addition (Tz). Experimental drugs are solubilized in dimethyl sulfoxide at 400-fold the desired final maximum test concentration and stored frozen prior to use. At the time of drug addition, an aliquot of frozen concentrate is thawed and diluted to twice the desired final maximum test concentration with complete medium containing 50 µg/ml gentamicin. An additional four, 10-fold or M log serial dilutions are made to provide a total of five drug concentrations plus control. Aliquots of 100 μl of these different drug dilutions are added to the appropriate microtiter wells already containing 100 μl of medium, resulting in the required final drug concentrations. Following drug addition, the plates are incubated for an additional 48 h at 37° C., 5% CO2, 95% air, and 100% relative humidity. For adherent cells, the assay is terminated by the addition of cold TCA. Cells are fixed in situ by the gentle addition of 50 μl of cold 50% (w/v) TCA (final concentration, 10% TCA) and incubated for 60 minutes at 4° C. The supernatant is discarded, and the plates are washed five times with tap water and air dried. Sulforhodamine B (SRB) solution (100 l) at 0.4% (w/v) in 1% acetic acid is added to each well, and plates are incubated for 10 minutes at room temperature. After staining, unbound dye is removed by washing five times with 1% acetic acid and the plates are air dried. Bound stain is subsequently solubilized with 10 mM trizma base, and the absorbance is read on an automated plate reader at a wavelength of 515 nm. For suspension cells, the methodology is the same except that the assay is terminated by fixing settled cells at the bottom of the wells by gently adding 50 μl of 80% TCA (final concentration, 16% TCA).

[1] = tested on: NCI-60 human cancer cell lines; assay: NCI-60 screen (SRB), panel average; type: cell-based; details: average over the NCI-60 cell lines of the table
Method: as §3, with “After staining, unbound dye is removed by washing five times with 1% acetic acid and the plates are air dried.” left out, “For suspension cells, the methodology is the same except that the assay is terminated by fixing settled cells at the bottom of the wells by gently adding 50 μl of 80% TCA (final concentration, 16% TCA).” left out

KIT = KIT (Homo sapiens, UniProt P10721); assay: Tyrosine kinase inhibition assay; type: biochemical; details: single concentration 1.0 μM, read-out: percent inhibition
Method: as §1
The inhibition activities of compounds were determined in biochemical assays using single concentration (1.0 μM) measurements. The results were provided as percent inhibition values. […]

EPHB2 = molecular target: T1, EPHB2 (Homo sapiens, UniProt P29323); assay: Tyrosine kinase inhibition assay; type: biochemical; details: single concentration 1.0 μM, read-out: percent inhibition
T1 sequence (P29323 19-1055): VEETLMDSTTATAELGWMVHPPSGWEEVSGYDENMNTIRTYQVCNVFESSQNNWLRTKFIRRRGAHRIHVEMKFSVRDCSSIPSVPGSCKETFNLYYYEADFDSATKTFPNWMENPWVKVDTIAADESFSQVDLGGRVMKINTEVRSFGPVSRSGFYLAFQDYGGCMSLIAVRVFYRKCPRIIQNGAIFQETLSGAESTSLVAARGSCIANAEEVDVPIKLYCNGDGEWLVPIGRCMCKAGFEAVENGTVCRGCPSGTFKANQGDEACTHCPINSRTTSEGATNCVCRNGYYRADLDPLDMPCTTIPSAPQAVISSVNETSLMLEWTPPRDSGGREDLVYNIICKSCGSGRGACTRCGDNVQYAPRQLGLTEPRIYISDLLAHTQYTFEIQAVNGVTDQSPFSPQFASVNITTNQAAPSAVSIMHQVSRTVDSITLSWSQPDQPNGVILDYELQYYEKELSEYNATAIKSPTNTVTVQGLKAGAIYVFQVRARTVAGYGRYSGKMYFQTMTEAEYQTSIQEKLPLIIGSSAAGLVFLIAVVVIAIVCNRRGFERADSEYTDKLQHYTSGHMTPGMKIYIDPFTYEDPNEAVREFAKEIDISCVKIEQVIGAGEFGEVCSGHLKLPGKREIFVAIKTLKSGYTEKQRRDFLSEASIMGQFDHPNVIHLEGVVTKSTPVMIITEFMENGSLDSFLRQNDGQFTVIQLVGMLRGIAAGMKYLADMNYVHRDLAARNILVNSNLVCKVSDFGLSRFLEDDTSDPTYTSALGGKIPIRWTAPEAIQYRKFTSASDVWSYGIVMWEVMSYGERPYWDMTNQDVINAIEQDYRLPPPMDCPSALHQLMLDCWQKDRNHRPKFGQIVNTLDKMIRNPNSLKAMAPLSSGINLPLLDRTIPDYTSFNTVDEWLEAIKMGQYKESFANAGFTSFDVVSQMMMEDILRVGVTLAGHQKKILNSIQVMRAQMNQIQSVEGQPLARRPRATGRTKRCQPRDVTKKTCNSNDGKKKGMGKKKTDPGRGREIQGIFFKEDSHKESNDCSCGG
Method: as §1, §2

PTK2 (FAK) = PTK2 (FAK) (Homo sapiens, UniProt Q05397); assay: Tyrosine kinase inhibition assay; type: biochemical; details: single concentration 1.0 μM, read-out: percent inhibition
Method: as §1, §2

SNB-75 = assay: NCI-60 screen (SRB); type: cell-based; details: Homo sapiens; SNB-75, CNS Cancer
Method: as §3

Chain of PTK2 (FAK) (Q05397 whole entry): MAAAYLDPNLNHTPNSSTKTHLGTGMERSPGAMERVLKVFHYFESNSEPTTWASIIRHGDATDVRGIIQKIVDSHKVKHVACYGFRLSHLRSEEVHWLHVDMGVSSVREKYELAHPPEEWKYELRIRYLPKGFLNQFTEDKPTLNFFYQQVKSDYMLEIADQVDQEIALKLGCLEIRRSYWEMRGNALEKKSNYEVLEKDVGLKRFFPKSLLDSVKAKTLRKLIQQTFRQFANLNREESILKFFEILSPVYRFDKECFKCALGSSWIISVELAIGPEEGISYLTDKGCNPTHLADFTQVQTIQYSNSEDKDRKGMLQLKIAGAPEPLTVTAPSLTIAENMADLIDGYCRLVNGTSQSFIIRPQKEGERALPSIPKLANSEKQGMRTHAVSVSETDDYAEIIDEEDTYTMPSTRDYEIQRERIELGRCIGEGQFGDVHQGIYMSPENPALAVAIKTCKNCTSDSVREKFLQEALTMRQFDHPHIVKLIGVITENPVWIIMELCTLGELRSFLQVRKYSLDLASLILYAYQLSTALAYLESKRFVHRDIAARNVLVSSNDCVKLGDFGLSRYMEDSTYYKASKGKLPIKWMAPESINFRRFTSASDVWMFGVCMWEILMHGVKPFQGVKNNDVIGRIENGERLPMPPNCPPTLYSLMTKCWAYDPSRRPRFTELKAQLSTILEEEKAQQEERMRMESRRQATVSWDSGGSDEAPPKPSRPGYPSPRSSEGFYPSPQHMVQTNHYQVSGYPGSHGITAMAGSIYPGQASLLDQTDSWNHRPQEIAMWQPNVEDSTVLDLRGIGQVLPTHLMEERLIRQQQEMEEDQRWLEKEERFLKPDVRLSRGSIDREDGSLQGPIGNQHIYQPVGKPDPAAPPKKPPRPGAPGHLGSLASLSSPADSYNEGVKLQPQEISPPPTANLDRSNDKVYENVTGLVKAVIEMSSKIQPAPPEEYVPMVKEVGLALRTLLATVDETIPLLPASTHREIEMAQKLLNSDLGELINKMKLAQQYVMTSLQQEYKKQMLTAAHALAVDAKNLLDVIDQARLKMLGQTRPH
Chain of KIT (P10721 26-976): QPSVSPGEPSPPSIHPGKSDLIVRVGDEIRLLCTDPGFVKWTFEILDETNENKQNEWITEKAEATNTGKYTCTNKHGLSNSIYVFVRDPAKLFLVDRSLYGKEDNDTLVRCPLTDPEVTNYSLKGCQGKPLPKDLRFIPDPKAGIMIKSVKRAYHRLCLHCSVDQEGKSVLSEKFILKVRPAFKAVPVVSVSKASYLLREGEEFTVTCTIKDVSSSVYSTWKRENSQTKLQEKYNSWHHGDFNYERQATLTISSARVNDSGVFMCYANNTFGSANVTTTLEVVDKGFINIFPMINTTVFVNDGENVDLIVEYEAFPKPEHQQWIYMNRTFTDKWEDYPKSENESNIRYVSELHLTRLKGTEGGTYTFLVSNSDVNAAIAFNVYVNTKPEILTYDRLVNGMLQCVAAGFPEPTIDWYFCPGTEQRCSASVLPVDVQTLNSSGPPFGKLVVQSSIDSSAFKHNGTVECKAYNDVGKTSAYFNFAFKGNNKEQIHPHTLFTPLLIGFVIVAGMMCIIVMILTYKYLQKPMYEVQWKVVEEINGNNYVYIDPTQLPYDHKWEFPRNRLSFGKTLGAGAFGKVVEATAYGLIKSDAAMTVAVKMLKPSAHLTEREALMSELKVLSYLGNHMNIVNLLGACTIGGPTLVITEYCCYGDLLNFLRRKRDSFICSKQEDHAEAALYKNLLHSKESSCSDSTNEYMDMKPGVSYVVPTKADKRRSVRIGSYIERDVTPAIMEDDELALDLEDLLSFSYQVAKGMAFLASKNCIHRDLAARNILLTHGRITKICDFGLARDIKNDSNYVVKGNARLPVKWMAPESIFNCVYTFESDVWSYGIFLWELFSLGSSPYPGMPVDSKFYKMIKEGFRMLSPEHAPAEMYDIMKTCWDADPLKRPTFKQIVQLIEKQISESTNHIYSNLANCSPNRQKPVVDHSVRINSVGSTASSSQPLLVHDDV
Chain of FLT1 (VEGFR1) (P17948 27-1338): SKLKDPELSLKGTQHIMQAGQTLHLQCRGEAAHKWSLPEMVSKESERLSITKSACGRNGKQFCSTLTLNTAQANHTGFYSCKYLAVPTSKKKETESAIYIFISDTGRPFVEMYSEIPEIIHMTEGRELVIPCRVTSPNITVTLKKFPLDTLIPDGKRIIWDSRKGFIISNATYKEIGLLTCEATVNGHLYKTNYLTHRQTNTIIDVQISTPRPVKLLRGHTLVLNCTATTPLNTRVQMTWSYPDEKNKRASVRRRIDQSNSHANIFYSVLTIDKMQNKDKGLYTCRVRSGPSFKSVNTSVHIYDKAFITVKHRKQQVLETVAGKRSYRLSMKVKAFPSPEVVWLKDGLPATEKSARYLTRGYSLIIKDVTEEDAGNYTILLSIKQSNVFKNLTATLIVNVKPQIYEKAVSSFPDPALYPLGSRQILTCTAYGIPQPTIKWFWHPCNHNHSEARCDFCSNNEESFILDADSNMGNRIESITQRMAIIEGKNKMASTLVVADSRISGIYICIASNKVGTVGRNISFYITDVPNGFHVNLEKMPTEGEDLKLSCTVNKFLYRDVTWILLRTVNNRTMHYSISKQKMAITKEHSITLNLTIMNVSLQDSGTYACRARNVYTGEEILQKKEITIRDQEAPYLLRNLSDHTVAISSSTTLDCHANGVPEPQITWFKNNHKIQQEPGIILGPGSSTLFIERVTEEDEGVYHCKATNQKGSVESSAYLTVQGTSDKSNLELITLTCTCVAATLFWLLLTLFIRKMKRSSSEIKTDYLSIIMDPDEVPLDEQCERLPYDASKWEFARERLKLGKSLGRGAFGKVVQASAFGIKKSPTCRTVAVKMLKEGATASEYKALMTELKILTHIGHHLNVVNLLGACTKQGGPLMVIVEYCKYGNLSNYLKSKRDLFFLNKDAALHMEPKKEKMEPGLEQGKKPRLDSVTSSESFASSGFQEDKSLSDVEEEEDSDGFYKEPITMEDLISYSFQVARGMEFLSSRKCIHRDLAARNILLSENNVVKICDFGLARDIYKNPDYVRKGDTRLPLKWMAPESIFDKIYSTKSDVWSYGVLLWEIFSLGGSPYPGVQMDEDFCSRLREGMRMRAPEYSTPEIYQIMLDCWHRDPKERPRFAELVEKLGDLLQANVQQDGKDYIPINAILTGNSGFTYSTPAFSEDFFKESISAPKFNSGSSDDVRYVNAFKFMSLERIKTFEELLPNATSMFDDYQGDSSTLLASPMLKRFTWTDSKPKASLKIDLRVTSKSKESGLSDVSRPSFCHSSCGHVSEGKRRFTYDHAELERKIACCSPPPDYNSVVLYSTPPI

| Compound | inhibition at 1 µM (FLT1 (VEGFR1)) | GI50 (RPMI-8226) | GI50 [1] | inhibition at 1 µM (KIT) | inhibition at 1 µM (EPHB2) | inhibition at 1 µM (PTK2 (FAK)) | GI50 (SNB-75) |
| --- | --- | --- | --- | --- | --- | --- | --- |
| COc1cc2nccc(Oc3ccc(NC(=O)C4(C(=O)Nc5ccc(F)cc5)CC4)cc3)c2cc1OC [Cabozantinib, reference compound] | 67% |  |  |  |  |  |  |
| COc1cc2nccc(Oc3ccc(NC(=O)C4(NC(=O)c5ccc(F)cc5)CC4)cc3F)c2cc1OC [Cbo-02, N-(1-((4-((6,7-diMethoxyquinolin-4-yl)oxy)-3-fluorophenyl)carbamoyl)cyclopropyl)-4-fluorobenzamide] | 30% | 4570 nM | 2560 nM | 33% | 13% | 20% |  |
| COc1cc2nccc(Oc3ccc(NC(=O)C4(NC(=O)c5ccc(F)cc5)CC4)cc3F)c2cc1Oc1ccc(N)cc1F [Cbo-10] | 61% | 2990 nM | 1570 nM | 48% | 64% | 33% | > 100000 nM |
| COc1cc2nccc(Oc3ccc(NC(=O)C4(NC(=O)c5ccc(F)cc5)CC4)cc3F)c2cc1Oc1c(F)cc(N)cc1F [Cbo-14] | 62% |  |  | 45% | 77% | 29% |  |
| COc1cc2nccc(Oc3ccc(NC(=O)C4(C(=O)Nc5ccc(F)cc5)CC4)cc3F)c2cc1Oc1ccc(N)cc1F [Cbo-23] | 76% |  | 730 nM | 51% | 100% | 66% | 178 nM |
